Measured values: the supplement of paper PMC11208160

Test: recombinant UMI read abundance after kanamycin selection (control-corrected) (log10(CPM+1)); higher = more efficient recombination; extreme values may be limits of the assay; sequences stand for … in AGTGCAGAGAAAATCGGCCAGTTTTCTCTGCCTGCAGTCCGCATGCCGTGGGACCCCTTGGGTTCTAACCTGTTGCCTAGATTTATGCAGCGGACTGCCTTTCTCCCAAAGTGATAAACCGG…AGGTTGGTTTCACT; site = the 11-nt donor
Summary of the method: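 In a pooled Escherichia coli screen for the IS621 bridge recombinase, donor and donor-binding-loop pairs were each placed with a 12-nt UMI on a plasmid bearing a promoterless kanamycin gene. This library was co-electroporated with a target plasmid encoding a fixed target and T7-inducible recombinase, and cells were plated either on IPTG (0.07 mM) plus kanamycin or without selection, in two replicates each. Recombinant UMIs were PCR-amplified across the donor–target junction and sequenced, and counts were converted to CPM, averaged over replicates, scaled by control-derived factors and reported as log10(CPM+1).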
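Also: IS621 bridge recombinase in Escherichia coli cells against a fixed T5 target plasmid.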

Sequence | recombinant UMI read abundance (log10)
GTAGTGGCATGGACCGGTTTTCCCGGTAATCCGTATTTGCG (site GTAGTCGCTCG) | 1.25
GTAGTGGCATGGACCGGTTTTCCCGGTAATCCGTATTTGCG (site GTAGTGGCTCG) | 2.18
GTAGTGGCATGGACCGGTTTTCCCGGTAATCCGTATTTGCG (site GTAGTTGCTCG) | 2.06
GTATACCCATGGACCGGTTTTCCCGGTAATCCGTATTTGTC (site GTATACCCTGA) | 1.03
GTATAGTCATGGACCGGTTTTCCCGGTAATCCGTATTTGGT (site GTATAGTCTAC) | 2.67
GTATCGTCATGGACCGGTTTTCCCGGTAATCCGTATTTGTC (site GTATCGTCTGA) | 3.21
GTATGACCATGGACCGGTTTTCCCGGTAATCCGTATTTGGC (site GTATGACCTGC) | 0
GTATGCACATGGACCGGTTTTCCCGGTAATCCGTATTTGAA (site GTATGCACTTA) | 0.217
GTATGCACATGGACCGGTTTTCCCGGTAATCCGTATTTGAA (site GTATGCACTTC) | 0.0775
GTATGCACATGGACCGGTTTTCCCGGTAATCCGTATTTGAA (site GTATGCACTTG) | 0.0145
GTATGCACATGGACCGGTTTTCCCGGTAATCCGTATTTGAA (site GTATGCACTTT) | 1.53
GTATGCGCATGGACCGGTTTTCCCGGTAATCCGTATTTGAA (site GTATGCGCTTT) | 1.66
GTATGCGCATGGACCGGTTTTCCCGGTAATCCGTATTTGTA (site GTATGCACTTA) | 1.8
GTATGCGCATGGACCGGTTTTCCCGGTAATCCGTATTTGTA (site GTATGCCCTTA) | 0.772
GTATGCGCATGGACCGGTTTTCCCGGTAATCCGTATTTGTA (site GTATGCGCTTA) | 2.35
GTATGCGCATGGACCGGTTTTCCCGGTAATCCGTATTTGTA (site GTATGCTCTTA) | 1.33
GTATGGACATGGACCGGTTTTCCCGGTAATCCGTATTTGTA (site GTATGAACTTA) | 2.39
GTATGGACATGGACCGGTTTTCCCGGTAATCCGTATTTGTA (site GTATGCACTTA) | 0.0152
GTATGGACATGGACCGGTTTTCCCGGTAATCCGTATTTGTA (site GTATGGACTTA) | 1.9
GTATGGACATGGACCGGTTTTCCCGGTAATCCGTATTTGTA (site GTATGTACTTA) | 0.44
GTCACAACATGGACCGGTTTTCCCGGTAATCCGTATTTGAC (site GTCACAACTGT) | 1.36
GTCACGACATGGACCGGTTTTCCCGGTAATCCGTATTTGAC (site GTCACGACTGT) | 1.96
GTCAGAACATGGACCGGTTTTCCCGGTAATCCGTATTTGAT (site GTCAGAACTAT) | 2.16
GTCAGACCATGGACCGGTTTTCCCGGTAATCCGTATTTGGT (site GTCAGACCTAC) | 0
GTCCAAGCATGGACCGGTTTTCCCGGTAATCCGTATTTGAG (site ATCCAAGCTCT) | 0.677

Sequence | recombinant UMI read abundance (log10)
GTCCAAGCATGGACCGGTTTTCCCGGTAATCCGTATTTGAG (site CTCCAAGCTCT) | 0
GTCCAAGCATGGACCGGTTTTCCCGGTAATCCGTATTTGAG (site GTCCAAGCTCT) | 0.618
GTCCAAGCATGGACCGGTTTTCCCGGTAATCCGTATTTGAG (site TTCCAAGCTCT) | 0.088
GTCCACCCATGGACCGGTTTTCCCGGTAATCCGTATTTGTT (site GACCACCCTAA) | 0.0143
GTCCACCCATGGACCGGTTTTCCCGGTAATCCGTATTTGTT (site GCCCACCCTAA) | 0.0129
GTCCACCCATGGACCGGTTTTCCCGGTAATCCGTATTTGTT (site GGCCACCCTAA) | 0.0212
GTCCACCCATGGACCGGTTTTCCCGGTAATCCGTATTTGTT (site GTCCACCCTAA) | 0.0175
GTCCATTCATGGACCGGTTTTCCCGGTAATCCGTATTTGCT (site GTCCATTCTAG) | 0.671
GTCCCCGCATGGACCGGTTTTCCCGGTAATCCGTATTTGAG (site GTCCCCGCTCT) | 0.468
GTCCCGTCATGGACCGGTTTTCCCGGTAATCCGTATTTGGT (site GTCCCGTCTAC) | 0.849
GTCGACCCATGGACCGGTTTTCCCGGTAATCCGTATTTGAG (site GTCGACCCTCT) | 0.0157
GTCGGTCCATGGACCGGTTTTCCCGGTAATCCGTATTTGTA (site GTCGGTCCTTA) | 0.0236
GTCGTTCCATGGACCGGTTTTCCCGGTAATCCGTATTTGGT (site GTAGTTCCTAC) | 0
GTCGTTCCATGGACCGGTTTTCCCGGTAATCCGTATTTGGT (site GTCGTTCCTAC) | 0.0042
GTCGTTCCATGGACCGGTTTTCCCGGTAATCCGTATTTGGT (site GTGGTTCCTAC) | 0.0048
GTCGTTCCATGGACCGGTTTTCCCGGTAATCCGTATTTGGT (site GTTGTTCCTAC) | 0.00325
GTCTGACCATGGACCGGTTTTCCCGGTAATCCGTATTTGAG (site CAGGCTGCTTA) | 0.0145
GTCTGCCCATGGACCGGTTTTCCCGGTAATCCGTATTTGAG (site GTCTGCCCTCT) | 0.0162
GTCTTACCATGGACCGGTTTTCCCGGTAATCCGTATTTGCC (site GTCTTACCTGG) | 0
GTCTTGACATGGACCGGTTTTCCCGGTAATCCGTATTTGTG (site GTCTTGACTCA) | 0.296
GTCTTGTCATGGACCGGTTTTCCCGGTAATCCGTATTTGTC (site GTCTTGTCTGA) | 1.66
GTGACGCCATGGACCGGTTTTCCCGGTAATCCGTATTTGAA (site GTGACGCCTTT) | 0.0255
GTGAGCGCATGGACCGGTTTTCCCGGTAATCCGTATTTGAG (site GTGAGCGCTCT) | 1.68
GTGCAGGCATGGACCGGTTTTCCCGGTAATCCGTATTTGGT (site GTGCAAGCTAC) | 1.77
GTGCAGGCATGGACCGGTTTTCCCGGTAATCCGTATTTGGT (site GTGCACGCTAC) | 0.00349

Sequence | recombinant UMI read abundance (log10)
GTGCAGGCATGGACCGGTTTTCCCGGTAATCCGTATTTGGT (site GTGCAGGCTAC) | 0.659
GTGCAGGCATGGACCGGTTTTCCCGGTAATCCGTATTTGGT (site GTGCATGCTAC) | 0.279
GTGCAGGCATGGACCGGTTTTCCCGGTAATCCGTATTTGTG (site GTGAAGGCTCA) | 1.5
GTGCAGGCATGGACCGGTTTTCCCGGTAATCCGTATTTGTG (site GTGCAGGCTCA) | 1.17
GTGCAGGCATGGACCGGTTTTCCCGGTAATCCGTATTTGTG (site GTGGAGGCTCA) | 0.393
GTGCAGGCATGGACCGGTTTTCCCGGTAATCCGTATTTGTG (site GTGTAGGCTCA) | 0.475
GTGCATACATGGACCGGTTTTCCCGGTAATCCGTATTTGGT (site GTGCATACTAC) | 1.51
GTGCATACATGGACCGGTTTTCCCGGTAATCCGTATTTGGT (site GTGCATCCTAC) | 0.00833
GTGCATACATGGACCGGTTTTCCCGGTAATCCGTATTTGGT (site GTGCATGCTAC) | 0.555
GTGCATACATGGACCGGTTTTCCCGGTAATCCGTATTTGGT (site GTGCATTCTAC) | 0.00888
GTGCATGCATGGACCGGTTTTCCCGGTAATCCGTATTTGCT (site GTGCATGCTAA) | 0.00274
GTGCATGCATGGACCGGTTTTCCCGGTAATCCGTATTTGCT (site GTGCATGCTAC) | 0
GTGCATGCATGGACCGGTTTTCCCGGTAATCCGTATTTGCT (site GTGCATGCTAG) | 2.86
GTGCATGCATGGACCGGTTTTCCCGGTAATCCGTATTTGCT (site GTGCATGCTAT) | 0.999
GTGCCGACATGGACCGGTTTTCCCGGTAATCCGTATTTGAC (site GTGCCGACTGT) | 2.4
GTGCGTGCATGGACCGGTTTTCCCGGTAATCCGTATTTGGT (site GTGCATGCTAC) | 0.26
GTGCGTGCATGGACCGGTTTTCCCGGTAATCCGTATTTGGT (site GTGCCTGCTAC) | 0.00736
GTGCGTGCATGGACCGGTTTTCCCGGTAATCCGTATTTGGT (site GTGCGTGCTAC) | 0.346
GTGCGTGCATGGACCGGTTTTCCCGGTAATCCGTATTTGGT (site GTGCTTGCTAC) | 0.00274
GTGCTCCCATGGACCGGTTTTCCCGGTAATCCGTATTTGAC (site GTGCTCCCTGT) | 1.9
GTGGACGCATGGACCGGTTTTCCCGGTAATCCGTATTTGAG (site GTGGACGCTCT) | 1.56
GTGGACGCATGGACCGGTTTTCCCGGTAATCCGTATTTGTG (site GTGGAAGCTCA) | 1.41
GTGGACGCATGGACCGGTTTTCCCGGTAATCCGTATTTGTG (site GTGGACGCTCA) | 1.56
GTGGACGCATGGACCGGTTTTCCCGGTAATCCGTATTTGTG (site GTGGAGGCTCA) | 0.0785
GTGGACGCATGGACCGGTTTTCCCGGTAATCCGTATTTGTG (site GTGGATGCTCA) | 0.653
